Key:
KAT-5 = KAT-5 (Homo sapiens (Human), UniProt Q92993); experiment: KAT-5 biochemical inhibition assay (SAMDI mass spectrometry)
Protocol: (§1) KAT-5. Enzyme assay buffer was 50 mM Tris pH 8.0, 0.002% Tween20, 0.005% bovine skin gelatin, and 1 mM dithiothreitol (DTT). For determination of IC50 values, compounds were serially diluted with 2% (v/v) DMSO in the final reaction, pre-incubating each dilution of each compound with 40 μL of assay buffer containing KAT-5 enzyme (9 nM final concentration). 10 μL of assay buffer containing 1 μM peptide substrate and 0.5 μM acetyl coenzyme A (final concentrations) was added. Reactions (50 μL total) were then carried out at 25° C. for 90 minutes. Reactions were terminated by the addition of 0.5% formic acid (final concentration), and a sample of each reaction was analyzed by SAMDI Tech, Inc. (Chicago, Ill.) using self-assembled monolayer desorption/ionization time-of-flight mass spectrometry (Mrksich, M. (2008) Mass spectrometry of self-assembled monolayers: a new tool for molecular surface science. ACS Nano 2, 7-18).

KAT-6A = KAT-6A (Homo sapiens (Human), UniProt Q92794); experiment: KAT-6A biochemical inhibition assay (SAMDI mass spectrometry)
Protocol: as §1, with “KAT-6A. Enzyme” for “KAT-5. Enzyme”, “containing KAT-6A” for “containing KAT-5”, “enzyme (12.5” for “enzyme (9”, “and 1” for “and 0.5”

KAT-7 = KAT-7 (Homo sapiens (Human), UniProt O95251); experiment: KAT-7 biochemical inhibition assay (SAMDI mass spectrometry)
Protocol: as §1, with “KAT-7. Enzyme” for “KAT-5. Enzyme”, “containing KAT-7” for “containing KAT-5”, “enzyme (6” for “enzyme (9”, “and 2” for “and 0.5”, “for 120” for “for 90”

KAT-8 = KAT-8 (Homo sapiens (Human), UniProt Q9H7Z6); experiment: KAT-8 biochemical inhibition assay (SAMDI mass spectrometry)
Protocol: as §1, with “KAT-8. Enzyme” for “KAT-5. Enzyme”, “containing KAT-8” for “containing KAT-5”, “enzyme (12.5” for “enzyme (9”, “and 5” for “and 0.5”

Chain of KAT-8 (Q9H7Z6 other isoform, or with tags, fused parts or gaps): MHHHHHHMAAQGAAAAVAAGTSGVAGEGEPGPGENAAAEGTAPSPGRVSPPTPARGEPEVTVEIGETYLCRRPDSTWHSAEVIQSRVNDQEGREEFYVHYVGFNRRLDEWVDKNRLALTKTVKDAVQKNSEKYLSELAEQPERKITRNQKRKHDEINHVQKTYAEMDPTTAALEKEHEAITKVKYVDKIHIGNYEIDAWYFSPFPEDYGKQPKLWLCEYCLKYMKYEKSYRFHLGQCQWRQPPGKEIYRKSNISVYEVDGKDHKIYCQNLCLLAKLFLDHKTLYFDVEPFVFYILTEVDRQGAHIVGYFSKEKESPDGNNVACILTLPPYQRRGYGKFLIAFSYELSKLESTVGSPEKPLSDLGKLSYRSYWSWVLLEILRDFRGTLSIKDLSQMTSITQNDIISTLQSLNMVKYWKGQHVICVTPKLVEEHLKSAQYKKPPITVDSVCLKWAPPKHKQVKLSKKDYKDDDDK
Chain of KAT-7 (O95251 other isoform, or with tags, fused parts or gaps): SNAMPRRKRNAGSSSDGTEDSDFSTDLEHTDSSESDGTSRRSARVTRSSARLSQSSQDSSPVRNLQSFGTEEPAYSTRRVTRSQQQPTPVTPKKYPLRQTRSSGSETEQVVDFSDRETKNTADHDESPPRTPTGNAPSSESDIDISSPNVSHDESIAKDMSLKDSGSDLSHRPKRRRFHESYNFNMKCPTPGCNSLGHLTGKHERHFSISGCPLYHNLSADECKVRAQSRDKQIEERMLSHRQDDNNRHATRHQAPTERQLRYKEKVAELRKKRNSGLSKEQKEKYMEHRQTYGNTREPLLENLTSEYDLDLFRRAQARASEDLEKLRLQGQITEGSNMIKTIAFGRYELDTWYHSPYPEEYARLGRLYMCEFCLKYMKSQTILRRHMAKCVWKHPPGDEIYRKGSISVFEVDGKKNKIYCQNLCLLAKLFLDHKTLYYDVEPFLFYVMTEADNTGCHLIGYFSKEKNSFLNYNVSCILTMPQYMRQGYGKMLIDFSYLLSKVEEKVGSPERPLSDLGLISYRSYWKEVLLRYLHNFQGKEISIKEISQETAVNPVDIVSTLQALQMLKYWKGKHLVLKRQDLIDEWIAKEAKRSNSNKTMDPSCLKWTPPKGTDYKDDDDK
Chain of KAT-6A (Q92794 other isoform, or with tags, fused parts or gaps): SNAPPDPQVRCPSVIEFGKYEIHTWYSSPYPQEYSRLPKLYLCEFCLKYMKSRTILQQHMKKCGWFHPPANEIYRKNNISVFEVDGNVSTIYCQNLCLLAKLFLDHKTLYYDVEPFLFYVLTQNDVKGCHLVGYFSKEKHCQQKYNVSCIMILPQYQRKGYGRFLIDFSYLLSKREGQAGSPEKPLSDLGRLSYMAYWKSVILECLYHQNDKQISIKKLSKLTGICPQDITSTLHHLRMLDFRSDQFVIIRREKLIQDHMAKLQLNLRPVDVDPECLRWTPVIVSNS
Chain of KAT-5 (Q92993 other isoform, or with tags, fused parts or gaps): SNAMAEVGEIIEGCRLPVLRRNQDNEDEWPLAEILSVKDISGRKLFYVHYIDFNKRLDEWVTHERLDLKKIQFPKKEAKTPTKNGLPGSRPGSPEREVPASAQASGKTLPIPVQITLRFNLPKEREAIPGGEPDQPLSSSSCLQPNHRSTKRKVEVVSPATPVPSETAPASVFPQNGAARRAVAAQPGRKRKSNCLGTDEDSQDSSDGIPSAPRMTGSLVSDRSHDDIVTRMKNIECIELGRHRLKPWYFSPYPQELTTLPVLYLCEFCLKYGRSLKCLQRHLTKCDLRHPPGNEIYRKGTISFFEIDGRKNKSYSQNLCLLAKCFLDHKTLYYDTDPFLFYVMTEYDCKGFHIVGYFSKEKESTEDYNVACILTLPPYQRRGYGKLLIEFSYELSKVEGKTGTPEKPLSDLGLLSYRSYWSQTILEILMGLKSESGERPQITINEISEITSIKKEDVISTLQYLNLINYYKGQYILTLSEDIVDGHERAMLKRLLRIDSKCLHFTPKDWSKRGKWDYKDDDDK

Compound | IC50 (KAT-5) [µM] | IC50 (KAT-6A) [µM] | IC50 (KAT-7) [µM] | IC50 (KAT-8) [µM]
Cn1cnc(-c2cc(Cl)c(F)c(C(=O)NNS(=O)(=O)c3cnnn3C)c2)c1 [Compound I-71] | 10 to 50 | 10 to 50 | < 10 | 10 to 50
Cn1cnc(-c2cc(Cl)c(F)c(C(=O)NNS(=O)(=O)c3ccc(F)cc3)c2)c1 [Compound I-316] | < 10 | < 10 | < 10 | 10 to 50
C[C@@H]1CN(C(=O)OC(C)(C)C)C[C@H]1CS(=O)(=O)NNC(=O)c1cc(-c2cn(C)cn2)cc(Cl)c1F [Compound I-267] | < 10 | 10 to 50 | < 10 | 10 to 50
Cn1cnc(-c2cc(Cl)c(F)c(C(=O)NNS(=O)(=O)C[C@H]3CC[C@H](N(C)C(=O)OC(C)(C)C)CC3)c2)c1 [Compound I-332] | < 10 | < 10 | < 10 | 10 to 50
O=C(NNS(=O)(=O)CC1CCOCC1)c1cc(-n2ccnn2)cc(Cl)c1F [Compound I-90] | 10 to 50 | 10 to 50 | 10 to 50 | 10 to 50
Cn1cnc(-c2cc(Cl)c(F)c(C(=O)NNS(=O)(=O)c3cnn(C)c3)c2)c1 [Compound I-65] | 50 to 100 | 10 to 50 | < 10 | > 100
COCCn1cnc(-c2cc(C)c(F)c(C(=O)NNS(=O)(=O)C3CCCCC3)c2)c1 [Compound I-134] | 10 to 50 | > 100 | < 10 | > 100
Cn1cnc(-c2cc(Cl)c(F)c(C(=O)NNS(=O)(=O)c3cscn3)c2)c1 [Compound I-304] | < 10 | < 10 | < 10 | 10 to 50
Cc1cnn(-c2cc(Cl)c(F)c(C(=O)NNS(=O)(=O)CC3CCOCC3)c2)c1 [Compound I-36] | 10 to 50 | < 10 | < 10 | > 100
CN(C(=O)OC(C)(C)C)C1CC(CS(=O)(=O)NNC(=O)c2cc(-c3cn(C)cn3)cc(Cl)c2F)C1 (stereo not drawn) [Compound I-390] | < 10 | 10 to 50 | – | > 100
Cn1cnc(-c2cc(Cl)c(F)c(C(=O)NNS(=O)(=O)c3cccc(N)n3)c2)c1 [Compound I-392] | < 10 | < 10 | – | > 100
CN(CCOc1ccc(S(=O)(=O)NNC(=O)c2cc(-c3cn(C)cn3)cc(Cl)c2F)cc1)C(=O)OC(C)(C)C [Compound I-394] | 10 to 50 | 10 to 50 | – | > 100
CC(=O)N1[C@H]2CC[C@@H](CS(=O)(=O)NNC(=O)c3cc(-c4cn(C)cn4)cc(Cl)c3F)[C@@H]1CC2 [Compound I-277] | < 10 | < 10 | – | 10 to 50
Cn1cnc(-c2cc(Cl)c(F)c(C(=O)NNS(=O)(=O)CC3CCCC(NC(=O)Cc4ccccn4)C3)c2)c1 (stereo not drawn) [Compound I-268] | < 10 | < 10 | – | 10 to 50
Cn1cnc(-c2cc(Cl)c(F)c(C(=O)NNS(=O)(=O)C[C@H]3CC[C@H]4CC[C@@H]3N4C(=O)OC(C)(C)C)c2)c1 [Compound I-259] | < 10 | 10 to 50 | – | 10 to 50

Now from value to compound:

IC50 (KAT-5) [µM] | IC50 (KAT-6A) [µM] | IC50 (KAT-7) [µM] | IC50 (KAT-8) [µM] | Compound
< 10 | < 10 | < 10 | 10 to 50 | CCO[C@H]1CCC[C@H](CS(=O)(=O)NNC(=O)c2cc(-c3cn(C)cn3)cc(Cl)c2F)C1 [Compound I-357]
< 10 | < 10 | < 10 | 10 to 50 | CC(C)NC(=O)N1CCC(CS(=O)(=O)NNC(=O)c2cc(-c3cn(C)cn3)cc(Cl)c2F)C1 (stereo not drawn) [Compound I-198]
50 to 100 | > 100 | 10 to 50 | > 100 | CC(C)S(=O)(=O)NNC(=O)c1cc(-c2cn(C)cn2)cc(Cl)c1F [Compound I-14]
< 10 | 10 to 50 | < 10 | 10 to 50 | CCNC(=O)N1CCC(CS(=O)(=O)NNC(=O)c2cc(-c3cn(C)cn3)cc(Cl)c2F)C1 (stereo not drawn) [Compound I-88]
< 10 | < 10 | < 10 | 10 to 50 | CCCS(=O)(=O)N1CCC(CS(=O)(=O)NNC(=O)c2cc(-c3cn(C)cn3)cc(Cl)c2F)C1 (stereo not drawn) [Compound I-85]
10 to 50 | < 10 | < 10 | 10 to 50 | Cn1cnc(-c2cc(Cl)c(F)c(C(=O)NNS(=O)(=O)CC3CN(S(=O)(=O)C4CCC4)C3)c2)c1 [Compound I-170]
< 10 | < 10 | < 10 | 10 to 50 | Cn1cnc(-c2cc(Cl)c(F)c(C(=O)NNS(=O)(=O)C[C@@H]3C[C@H]4CC[C@@H]3O4)c2)c1 [Compound I-299]
< 10 | < 10 | < 10 | 10 to 50 | CNC(=S)N1CC[C@@H](CS(=O)(=O)NNC(=O)c2cc(-c3cn(C)cn3)cc(Cl)c2F)C1 [Compound I-183]
< 10 | < 10 | < 10 | 10 to 50 | Cn1cnc(-c2cc(Cl)c(F)c(C(=O)NNS(=O)(=O)CC3CCN(S(C)(=O)=O)C3)c2)c1 (stereo not drawn) [Compound I-63]
< 10 | – | < 10 | 10 to 50 | CC(C)S(=O)(=O)N1CCCC(CS(=O)(=O)NNC(=O)c2cc(-c3cn(C)cn3)cc(Cl)c2F)C1 (stereo not drawn) [Compound I-98]
< 10 | – | < 10 | 10 to 50 | CC(=O)NC1CCCC(CS(=O)(=O)NNC(=O)c2cc(-c3cn(C)cn3)cc(Cl)c2F)C1 (stereo not drawn) [Compound I-99]
< 10 | < 10 | – | 10 to 50 | Cn1cnc(-c2cc(Cl)c(F)c(C(=O)NNS(=O)(=O)CC3CCOC3)c2)c1 (stereo not drawn) [Compound I-272]
< 10 | < 10 | – | 10 to 50 | CN(C(=O)OC(C)(C)C)C1CCCC(CS(=O)(=O)NNC(=O)c2cc(-c3cn(C)cn3)cc(Cl)c2F)C1 (stereo not drawn) [Compound I-274]
10 to 50 | 10 to 50 | – | > 100 | CNC1CC(CS(=O)(=O)NNC(=O)c2cc(-c3cn(C)cn3)cc(Cl)c2F)C1 (stereo not drawn) [Compound I-395]
< 10 | – | < 10 | > 100 | Cc1c(-c2cc(Cl)c(F)c(C(=O)NNS(=O)(=O)CC3CCCCC3)c2)ncn1C [Compound I-38]
< 10 | < 10 | – | 10 to 50 | COC1CCC(CS(=O)(=O)NNC(=O)c2cc(-c3cn(C)cn3)cc(Cl)c2F)CC1 (stereo not drawn) [Compound I-278]
10 to 50 | 10 to 50 | – | 10 to 50 | C[C@@H]1CNC[C@H]1CS(=O)(=O)NNC(=O)c1cc(-c2cn(C)cn2)cc(Cl)c1F [Compound I-263]
< 10 | < 10 | – | 10 to 50 | Cn1cnc(-c2cc(Cl)c(F)c(C(=O)NNS(=O)(=O)CC3CCCO3)c2)c1 (stereo not drawn) [Compound I-276]
< 10 | < 10 | – | 10 to 50 | Cn1cnc(-c2cc(Cl)c(F)c(C(=O)NNS(=O)(=O)CC3CCCOC3)c2)c1 (stereo not drawn) [Compound I-273]
< 10 | < 10 | – | 10 to 50 | Cn1cnc(-c2cc(Cl)c(F)c(C(=O)NNS(=O)(=O)CC3CCCCO3)c2)c1 (stereo not drawn) [Compound I-279]
< 10 | < 10 | – | 10 to 50 | COC1CCCC(CS(=O)(=O)NNC(=O)c2cc(-c3cn(C)cn3)cc(Cl)c2F)C1 (stereo not drawn) [Compound I-270]

From patent US11685732B2, “MYST family histone acetyltransferase inhibitors” (Epizyme, Inc., priority 2017, dated 2023)
